# Data reported in patent US7998940B2, “Aptamers to von Willebrand factor and their use as thrombotic disease therapeutics” (Archemix Corp., priority 2004, dated 2011).
# Like-named read-outs stand apart in the source and are kept apart here. Oligonucleotides are written 5' to 3', each unit as a sugar letter and its base; * is a phosphorothioate linkage, no mark a phosphodiester; rarer units and linkages stand in square brackets, end groups in braces. Plain capitals give the bases only. [PEG] = polyethylene glycol spacer within the chain; [invdT] = inverted (3'-3') thymidine; d = 2'-deoxy (DNA); m = 2'-O-methyl
# System: full length human vWF (SEQ ID NO 7)
# Experiment: dot blot KD determination and extent of binding, full length human vWF;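 also: dot blot binding of aptamers to full length human vWF across a protein titration, incubated 30 minutes at room temperature in 1x DPBS with BSA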
# Details: for % binding @ 100 nM vWF: extent of aptamer binding at 100 nM full length human vWF; for Kd: full length human vWF, read-out: KD
# [1] = Phase 1 modification, dot blot, 8 point protein titration
# [2] = Phase 3 modification, dot blot, 8 point protein titration
# Description: Based on this initial screen, KDs were determined for 3 of the vWF dependent binding sequences using the dot blot assay. […] A 12 point protein titration was used in the dot blot assay (300 nM, 100 nM, 30 nM, 10 nM, 3 nM, 1 nM, 300 pM, 100 pM, 30 pM, 10 pM, 3 pM, 0 pM) in 1×DPBS plus 0.1 mg/mL BSA at room temperature for 30 minutes.
# An 8 point protein titration was used in the dot blot binding assay (100n M, 30 nM, 10 nM, 3 nM, 1 nM, 300 pM, 100 pM, 0 pM)) in 1× Dulbecco's PBS containing 0.1 BSA (final volume of 50 uL) for 30 minutes at room temperature.
Substance,% binding @ 100 nM vWF (Phase 3 modification),Kd [2],other results
ARC1238: ARC1172 with composite 2'-O methyl replacements in the stem regions (dGdGdCdGdTdGdCdAdGdTmGdCdCdTdTdCmGmGdCdCdGdTdGdCdGdGdTdGdCdCdTdCdCdGdTdCdAdCdGdCdC[invdT]; aptamer),–,–,% binding @ 100 nM vWF (Phase 1 modification): 43%; Kd [1]: 2 nM
ARC1239: ARC1172 with composite 2'-O methyl replacements in the stem regions (dGdGdCdGdTdGdCdAdGdTdGmCmCdTdTdCdGdGmCdCdGdTdGdCdGdGdTdGdCdCdTdCdCdGdTdCdAdCdGdCdC[invdT]; aptamer),–,–,% binding @ 100 nM vWF (Phase 1 modification): 37%; Kd [1]: 5 nM
ARC1240: ARC1172 with composite 2'-O methyl replacements in the stem regions (dGdGdCdGdTdGdCdAdGdTmGmCmCdTdTdCmGmGmCdCdGdTdGdCdGdGdTdGdCdCdTdCdCdGdTdCdAdCdGdCdC[invdT]; aptamer),–,–,% binding @ 100 nM vWF (Phase 1 modification): 40%; Kd [1]: 4 nM
ARC1361: ARC1346 with a mC to dC modification at position 36 (mGmCmGmUdGdCdAmGmUmGmCmCmUmUmCmGmGmCdCmGdTmGdCdGdGdTmGmCdCmUdCdCmGmUdCmAmCmGmC[invdT]),38.5%,7.9 nM,–
ARC1362: ARC1361 with single phosphorothioate phosphate backbone modification (mGmCmGmU*dGdCdAmGmUmGmCmCmUmUmCmGmGmCdCmGdTmGdCdGdGdTmGmCdCmUdCdCmGmUdCmAmCmGmC[invdT]),34.3%,9.9 nM,–
ARC1363: ARC1361 with single phosphorothioate phosphate backbone modification (mGmCmGmUdG*dCdAmGmUmGmCmCmUmUmCmGmGmCdCmGdTmGdCdGdGdTmGmCdCmUdCdCmGmUdCmAmCmGmC[invdT]; aptamer),32.7%,12.7 nM,–
ARC1364: ARC1361 with single phosphorothioate phosphate backbone modification (mGmCmGmUdGdC*dAmGmUmGmCmCmUmUmCmGmGmCdCmGdTmGdCdGdGdTmGmCdCmUdCdCmGmUdCmAmCmGmC[invdT]; aptamer),36.9%,8.2 nM,–
ARC1365: ARC1361 with single phosphorothioate phosphate backbone modification (mGmCmGmUdGdCdA*mGmUmGmCmCmUmUmCmGmGmCdCmGdTmGdCdGdGdTmGmCdCmUdCdCmGmUdCmAmCmGmC[invdT]; aptamer),35.4%,10.8 nM,–
ARC1366: ARC1361 with single phosphorothioate phosphate backbone modification (mGmCmGmUdGdCdAmGmUmGmCmCmUmUmCmGmGmC*dCmGdTmGdCdGdGdTmGmCdCmUdCdCmGmUdCmAmCmGmC[invdT]; aptamer),28.9%,15.5 nM,–
ARC1367: ARC1361 with single phosphorothioate phosphate backbone modification (mGmCmGmUdGdCdAmGmUmGmCmCmUmUmCmGmGmCdC*mGdTmGdCdGdGdTmGmCdCmUdCdCmGmUdCmAmCmGmC[invdT]; aptamer),30.4%,13.9 nM,–
ARC1369: ARC1361 with single phosphorothioate phosphate backbone modification (mGmCmGmUdGdCdAmGmUmGmCmCmUmUmCmGmGmCdCmGdT*mGdCdGdGdTmGmCdCmUdCdCmGmUdCmAmCmGmC[invdT]; aptamer),26.2%,16.3 nM,–
ARC1370: ARC1361 with single phosphorothioate phosphate backbone modification (mGmCmGmUdGdCdAmGmUmGmCmCmUmUmCmGmGmCdCmGdTmG*dCdGdGdTmGmCdCmUdCdCmGmUdCmAmCmGmC[invdT]; aptamer),22.5%,10.1 nM,–
ARC1371: ARC1361 with single phosphorothioate phosphate backbone modification (mGmCmGmUdGdCdAmGmUmGmCmCmUmUmCmGmGmCdCmGdTmGdC*dGdGdTmGmCdCmUdCdCmGmUdCmAmCmGmC[invdT]),32.1%,8.4 nM,–
ARC1372: ARC1361 with single phosphorothioate phosphate backbone modification (mGmCmGmUdGdCdAmGmUmGmCmCmUmUmCmGmGmCdCmGdTmGdCdG*dGdTmGmCdCmUdCdCmGmUdCmAmCmGmC[invdT]; aptamer),35.2%,23.5 nM,–
ARC1373: ARC1361 with single phosphorothioate phosphate backbone modification (mGmCmGmUdGdCdAmGmUmGmCmCmUmUmCmGmGmCdCmGdTmGdCdGdG*dTmGmCdCmUdCdCmGmUdCmAmCmGmC[invdT]; aptamer),33.0%,7.1 nM,–
ARC1374: ARC1361 with single phosphorothioate phosphate backbone modification (mGmCmGmUdGdCdAmGmUmGmCmCmUmUmCmGmGmCdCmGdTmGdCdGdGdT*mGmCdCmUdCdCmGmUdCmAmCmGmC[invdT]; aptamer),27.2%,9.5 nM,–
ARC1375: ARC1361 with single phosphorothioate phosphate backbone modification (mGmCmGmUdGdCdAmGmUmGmCmCmUmUmCmGmGmCdCmGdTmGdCdGdGdTmGmC*dCmUdCdCmGmUdCmAmCmGmC[invdT]; aptamer),25.5%,8.8 nM,–
ARC1376: ARC1361 with single phosphorothioate phosphate backbone modification (mGmCmGmUdGdCdAmGmUmGmCmCmUmUmCmGmGmCdCmGdTmGdCdGdGdTmGmCdC*mUdCdCmGmUdCmAmCmGmC[invdT]; aptamer),31.3%,4.4 nM,–
ARC1377: ARC1361 with single phosphorothioate phosphate backbone modification (mGmCmGmUdGdCdAmGmUmGmCmCmUmUmCmGmGmCdCmGdTmGdCdGdGdTmGmCdCmU*dCdCmGmUdCmAmCmGmC[invdT]; aptamer),30.9%,7.4 nM,–
ARC1378: ARC1361 with single phosphorothioate phosphate backbone modification (mGmCmGmUdGdCdAmGmUmGmCmCmUmUmCmGmGmCdCmGdTmGdCdGdGdTmGmCdCmUdC*dCmGmUdCmAmCmGmC[invdT]; aptamer),31.1%,9.1 nM,–
ARC1379: ARC1361 with single phosphorothioate phosphate backbone modification (mGmCmGmUdGdCdAmGmUmGmCmCmUmUmCmGmGmCdCmGdTmGdCdGdGdTmGmCdCmUdCdC*mGmUdCmAmCmGmC[invdT]; aptamer),31.3%,10.4 nM,–
ARC1380: ARC1361 with single phosphorothioate phosphate backbone modification (mGmCmGmUdGdCdAmGmUmGmCmCmUmUmCmGmGmCdCmGdTmGdCdGdGdTmGmCdCmUdCdCmGmU*dCmAmCmGmC[invdT]),32.5%,12 nM,–
ARC1381: ARC1361 with single phosphorothioate phosphate backbone modification (mGmCmGmUdGdCdAmGmUmGmCmCmUmUmCmGmGmCdCmGdTmGdCdGdGdTmGmCdCmUdCdCmGmUdC*mAmCmGmC[invdT]),35.8%,8.7 nM,–
dGdGdCdGTdGdCdAdGTdGdCdCTTdCdGdGdCdCdG-s-TdGdCdGdGTdGdCdCTdCdCdGTdCdAdCdGdCdC-3T (dGdGdCdGdTdGdCdAdGdTdGdCdCdTdTdCdGdGdCdCdG*dTdGdCdGdGdTdGdCdCdTdCdCdGdTdCdAdCdGdCdC[invdT]) [ARC1759],–,–,"% binding @ 100 nM vWF (Phase 4 and 5 modification): 46%; Kd (Phase 4 and 5 modification): 0.7 nM; binding to human vWF (in words, dot blot): measurable improvement in affinity relative to ARC1172"
dGdGdCdGTdGdCdAdGTdGdCdCTTdCdGdGdCdCdGTmGdCdGdGTmGmCdCmUdCdCmGmUmCdAdCdGdCdC-3T (dGdGdCdGdTdGdCdAdGdTdGdCdCdTdTdCdGdGdCdCdGdTmGdCdGdGdTmGmCdCmUdCdCmGmUmCdAdCdGdCdC[invdT]; aptamer) [ARC1340],–,–,% binding @ 100 nM vWF (Phase 2 modification): 43%; Kd (Phase 2 modification): 7.4 nM
dGdGdCdGTdGdCdAmGmUdGdCdCTTdCdGdGdCdCmGTmGdCdGdGTdGdCdCTdCdCmGmUmCdAdCdGdCdC-3T (dGdGdCdGdTdGdCdAmGmUdGdCdCdTdTdCdGdGdCdCmGdTmGdCdGdGdTdGdCdCdTdCdCmGmUmCdAdCdGdCdC[invdT]; aptamer) [ARC1339],–,–,% binding @ 100 nM vWF (Phase 2 modification): 39%; Kd (Phase 2 modification): 2.4 nM
mCmCmGmGmCdCmG-s-TmGdCdGdGTmGmCdCmUdCdCmGmUdCmAmCmGmUmUmCmCmGmUdGdCdAmGmUmGmCmCmGmG-3T (mCmCmGmGmCdCmG*dTmGdCdGdGdTmGmCdCmUdCdCmGmUdCmAmCmGmUmUmCmCmGmUdGdCdAmGmUmGmCmCmGmG[invdT]; aptamer) [ARC1546],–,–,% binding @ 100 nM vWF (Phase 4 and 5 modification): 26%; Kd (Phase 4 and 5 modification): 24 nM
mCmCmGmGmCdCmG-s-TmGdCdGdGTmGmCdCmUdCdCmGmUmCmAmCmUmUmUmGmUdGdCdAmGmUmGmCmCmGmG-3T (mCmCmGmGmCdCmG*dTmGdCdGdGdTmGmCdCmUdCdCmGmUmCmAmCmUmUmUmGmUdGdCdAmGmUmGmCmCmGmG[invdT]; aptamer) [ARC1535],–,–,% binding @ 100 nM vWF (Phase 4 and 5 modification): 48.3%; Kd (Phase 4 and 5 modification): 27.1 nM
mCmGmGmCdCmG-s-TmGdCdGdGTmGmCdCmUdCdCmGmUmCmAmCmUmUmUmGmUdGdCdAmGmUmGmCmCmG-3T (mCmGmGmCdCmG*dTmGdCdGdGdTmGmCdCmUdCdCmGmUmCmAmCmUmUmUmGmUdGdCdAmGmUmGmCmCmG[invdT]; aptamer) [ARC1534],–,–,% binding @ 100 nM vWF (Phase 4 and 5 modification): 25.6%; Kd (Phase 4 and 5 modification): 62.8 nM
mCmGmUdGdCdAmGmUmGmCmCPEGmGmGmCdCmG-s-TmGdCdGdGTmGmCdCmUdCdCmGmUdCmAmCmG-3T (mCmGmUdGdCdAmGmUmGmCmC[PEG]mGmGmCdCmG*dTmGdCdGdGdTmGmCdCmUdCdCmGmUdCmAmCmG[invdT]; aptamer) [ARC1531],–,–,% binding @ 100 nM vWF (Phase 4 and 5 modification): 20.0%; Kd (Phase 4 and 5 modification): 1.5 nM
